Reference: patent publication US8211909B2, “Treatment of antibiotic-resistant bacteria infection” (TaiGen Biotechnology Co., Ltd., priority 2008, dated 2012)
Converted amounts (≈) assume the structure as drawn. Like-named read-outs stand apart in the source and are kept apart here.

Key:
[1] = tested on: Methicillin-resistant Staphylococcus aureus (MRSA) isolates; assay: MIC by broth microdilution (CLSI) against CAN-ICU MRSA isolates; type: cell-based; settings: for MIC50 / MIC90 / MIC: Staphylococcus aureus; for MIC50: read-out: MIC50; for MIC90: read-out: MIC90
Text: MRSA isolates (n=193) were obtained as part of the Canadian National Intensive Care Unit (CAN-ICU) Study. 19 medical centers from all regions of Canada with active ICUs participated in the CAN-ICU study included. They were requested to only obtain “clinically significant” specimens from patients with a presumed infectious disease. Surveillance swabs, eye, ear, nose and throat swabs were excluded. Anaerobic organisms and fungal organisms were also excluded.
From September 2005-June 2006 (inclusive), each center collected a maximum of 300 consecutive pathogens isolated from blood, urine, tissue/wound, and respiratory specimens (one pathogen per cultured site per patient) of ICU patients. These isolates were shipped to the reference laboratory (Health Sciences Centre, Winnipeg, Canada) on Amies charcoal swabs, subcultured in appropriate media, and stocked in skim milk at −80° C.
All isolates underwent mecA PCR, as well as molecular characterization (including PVL analysis and fingerprinting), as previously described, to assess whether they were community-associated or healthcare-associated (Christianson et al., J Clin Microbiol. 2007, 45 (6): 1904-11; Mulvey et al., J Clin. Microbiol. 2001, 39(10): 3481-5; Mulvey et al., Emerg Infect Dis. 2005,11(6): 844-50; Oliveira et al., Antimicrob Agents Chemother. 2002, 46(7): 2155-61). The isolates were also subtyped using pulsed-field gel electrophoresis (PFGE) following the Canadian standardized protocol as previously described (Mulvey et al., J Clin Microbiol. 2001, 39(10): 3481-5). Their PFGE fingerprints thus obtained were analyzed with BioNumerics v3.5 (Applied Maths St. Marten-Latem, Belgium) using a position tolerance of 1.0 and an optimization of 1.0. Strain relatedness was determined as previously described (Tenover et al., 1995). The fingerprints of the isolates were compared to the national MRSA fingerprint database and were grouped into one of 10 Canadian epidemic MRSA (CMRSA-1, CMRSA-2, etc) as previously described (Mulvey et al., Emerg Infect Dis. 2005,11(6):844-50).
Compound 1 and other antibiotics were tested for their inhibitory activity against the MRSA isolates using the broth microdilution guidelines as stipulated by the Clinical and Laboratory Standards Institute.

[2] = tested on: S. pneumoniae; assay: CANWARD 2007 gram-positive cocci, CLSI broth microdilution; type: cell-based, Streptococcus pneumoniae; set-up: MIC50 / MIC90: unit not given here
Method: (§1) From January-December 2007, 12 hospitals across Canada submitted isolates from patients attending hospital clinics, emergency rooms, medical and surgical wards, and intensive care units. 7881 isolates (CANWARD 2007) were collected including 3473 gram-positive cocci. Susceptibility testing for Compound 1 and Levofloxacin was performed using the Clinical and Laboratory Standards Institute broth microdilution.

[3] = tested on: S. aureus (MSSA, CA-MRSA, HA-MRSA, VISA, VRSA); assay: CANWARD 2007 / NARSA gram-positive cocci, CLSI broth microdilution; type: cell-based, Staphylococcus aureus; set-up: MIC50 / MIC90: unit not given here
Method: as §1

[4] = tested on: Staphylococcus epidermidis (MSSE, MRSE); assay: CANWARD 2007 gram-positive cocci, CLSI broth microdilution; type: cell-based; set-up: MIC50 / MIC90: unit not given beside the values
Method: as §1

[5] = tested on: E. faecalis; assay: as above; type: cell-based; set-up: unit not given beside the values; settings: E. faecalis (81)
Method: as §1

[6] = tested on: H. pylori isolates; assay: MIC by agar dilution against 200 H. pylori isolates (Taiwan); type: cell-based, Helicobacter pylori
Method: MICs were determined using the agar dilution methods recommended by the Clinical and Laboratory Standards Institute (CLSI-M100-S18).

[7] = MRSA / USA100, USA 100/800 (HA-MRSA)
[8] = MRSA / USA200, USA 200 (HA-MRSA)
[9] = MRSA / USA300, USA 300 (CA-MRSA)
[10] = MRSA / USA400, USA 400 (CA-MRSA)
[11] = MRSA / USA600, USA 600 (HA-MRSA)
[12] = Helicobacter pylori, 200 isolates of H. pylori

SMILES: COc1c(N2C[C@@H](C)C[C@H](N)C2)ccc2c(=O)c(C(=O)O)cn(C3CC3)c12 [Compound 1, (3S,5S)-7-[3-amino-5-methyl-piperidinyl]-1-cyclopropyl-1,4-dihydro-8-methoxy-4-oxo-3-quinolinecarboxylic acid]
- activity against community-associated versus healthcare-associated MRSA strains (in words) ([1]; CA-MRSA vs HA-MRSA strains): more active against community-associated-MRSA strains than healthcare-associated-MRSA strains
- inhibition of MRSA (in words) ([1]; MRSA isolates): effectively inhibited
- MIC50 [1, 7]: 4 µg/mL (≈ 10.8 µM)
- MIC90 [1, 7]: > 4 µg/mL
- MIC50 [1, 8]: 2 µg/mL (≈ 5.38 µM)
- MIC90 [1, 8]: 2 µg/mL (≈ 5.38 µM)
- MIC50 [1, 9]: 0.5 µg/mL (≈ 1.35 µM)
- MIC90 [1, 9]: 0.5 µg/mL (≈ 1.35 µM)
- MIC50 [1, 10]: 0.06 µg/mL (≈ 0.162 µM)
- MIC90 [1, 10]: 0.06 µg/mL (≈ 0.162 µM)
- MIC50 [1, 11]: 2 µg/mL (≈ 5.38 µM)
- MIC90 [1, 11]: 2 µg/mL (≈ 5.38 µM)
- MIC50 ([1]; MRSA (n = 193)): 4 µg/mL (≈ 10.8 µM)
- MIC90 ([1]; MRSA (n = 193)): > 4 µg/mL
- MIC ([1]; MRSA (n = 193), read-out: MIC Range Max): > 4 µg/mL
- MIC ([1]; MRSA (n = 193), read-out: MIC Range Min): 0.03 µg/mL (≈ 0.0808 µM)
- activity compared with Levofloxacin (in words) ([2]; PenI-SPN, PenR-SPN, CipR-SPN): more active than Levofloxacin
- MIC50 ([2]; SPN CipR (29)): 0.03
- MIC90 ([2]; SPN CipR (29)): 0.12
- MIC50 ([2]; SPN PenI (103)): 0.015/0.015
- MIC90 ([2]; SPN PenI (103)): 0.015/0.015
- MIC50 ([2]; SPN PenR (34)): 0.015
- MIC90 ([2]; SPN PenR (34)): 0.03
- MIC50 ([2]; SPN PenS (519)): 0.015/0.015
- MIC90 ([2]; SPN PenS (519)): 0.015/0.015
- MIC50 ([2]; SPN-All (656)): 0.015/0.015
- MIC90 ([2]; SPN-All (656)): 0.015/0.015
- MIC50 ([3]; CA-MRSA (23)): 0.25
- MIC90 ([3]; CA-MRSA (23)): 0.5
- MIC50 ([3]; HA-MRSA (91)): 4/>4
- MIC90 ([3]; HA-MRSA (91)): 4/>4
- activity compared with Levofloxacin (in words) ([3]; MRSA, VISA, VRSA): more active than Levofloxacin
- MIC50 ([3]; MSSA (372)): 0.03
- MIC90 ([3]; MSSA (372)): 0.12
- MIC50 ([3]; VISA (12), NARSA isolates): 1
- MIC90 ([3]; VISA (12), NARSA isolates): 2
- median MIC (single value under head MIC50/MIC90) ([3]; VRSA (7), NARSA isolates): 2
- activity compared with Levofloxacin (in words) ([4]; MRSE): more active than Levofloxacin
- MIC50 ([4]; MRSE (9)): 2/2
- MIC90 ([4]; MRSE (9)): 2/2
- MIC50 ([4]; MSSE (32)): 0.03
- MIC90 ([4]; MSSE (32)): 0.5
- MIC50 [5]: 0.12
- MIC90 [5]: 1
- inhibition (in words) ([6]; H. pylori isolates): effectively inhibited
- inhibition compared with other quinolones (in words) ([6]; H. pylori isolates): more effective in inhibiting the isolates of H. pylori than Ciprofloxacin, Levofloxacin, and Moxifloxacin, and comparable to Gemifloxacin
- MIC50 [6, 12]: 60 µg/mL (≈ 162 µM)
- MIC90 [6, 12]: 250 µg/mL (≈ 673 µM)
